This note sets out measurements from ChEMBL document CHEMBL5257152, “Antiproliferative activity and toxicity evaluation of 1,2,3-triazole and 4-methyl coumarin hybrids in the MCF7 breast cancer cell line” (RSC Med Chem, 2023).

Each structure is given as a SMILES string. The source made the active and inactive calls. The calls are words filed in the database; no cut-off is given here. Bounds are passed on as bounds.

As a reminder, the IC50 is the concentration needed to halve the response being measured.

Data set [1] can be described thus: Antioxidant activity assessed as DPPH radical scavenging activity measured at 50 to 600 sec by spectrophotometric analysis. It counts as functional.
In data set [2] the test system is SiHa. The data set can be described thus: Cytotoxicity against human SiHa cells assessed as reduction in cell viability measured after 24 hrs. It counts as functional, cell-based.
Data set [3] deals with MCF7. The data set can be described thus: Cytotoxicity against human MCF7 cells assessed as reduction in cell viability measured after 24 hrs. It counts as functional, cell-based. The note with it: MCF7, 24 h.
Data set [4] concerns J774.A1. Briefly: Cytotoxicity against mouse J774.A1 cells assessed as reduction in cell viability measured after 24 hrs. It counts as functional, cell-based. The following applies: J774.A1, 24 h.
The test system of data set [5] is MCF7. Briefly: Potency index, ratio of hymecromone IC50 to test compound IC50 for cytotoxicity against human MCF7 cells assessed as reduction in cell viability measured after 24 hrs. It is filed as functional.
The subject of data set [6] is NIH3T3. The data set can be described thus: Induction of apoptosis in mouse 3T3 cells assessed as increase in early apoptotic cells at 0.1 to 1 microM incubated for 24 hrs by Annexin V/PI staining based fluorescence microscopic analysis. It is filed as toxicity, cell-based. The following applies: nih3t3, 24 h, dose 0.1-1 µM.
Data set [7] is described as follows: Selectivity index, ratio of IC50 for mouse 3T3 cells to IC50 for human HepG2 cells. The note with it: 3T3 cells and HepG2 cells, read-out: Ratio IC50. It counts as toxicity.
Data set [8] relates to NIH3T3. The data set can be described thus: Antioxidant activity in mouse 3T3 cells assessed as reduction in ROS level at 0.1 to 5 uM incubated for 24 hrs by DCFH-DA dye based fluorescence microplate reader analysis. It counts as functional, cell-based. The note with it: dose 0.1-5 µM.
Data set [9] is described as follows: Selectivity index, ratio of IC50 for mouse 3T3 cells to IC50 for human MCF7 cells. The following applies: 3T3 cells and MCF7 cells, read-out: Ratio IC50. It counts as toxicity.
In data set [10] the test system is A549. The data set can be described thus: Cytotoxicity against human A549 cells assessed as reduction in cell viability measured after 24 hrs. It counts as functional, cell-based. The following applies: A549, 24 h.
Data set [11] relates to NIH3T3. Briefly: Disruption of mitochondrial membrane potential in mouse 3T3 cells at 0.1 to 5 uM incubated for 24 hrs by […] inclusion assay. It counts as toxicity, cell-based. The note with it: nih3t3, 24 h, dose 0.1-5 µM.
The nature of data set [12]: Selectivity index, ratio of IC50 for mouse 3T3 cells to IC50 for human SiHa cells. It counts as toxicity. The note with it: 3T3 cells and SiHa cells, read-out: Ratio IC50.
Data set [13] in a line: Genotoxicity in mouse 3T3 cells assessed as cell death at 0.1 to 5 microM incubated for 24 hrs by LMW comet assay. It counts as toxicity, cell-based. The following applies: nih3t3, 24 h, dose 0.1-5 µM.
Data set [14] concerns NIH3T3. The data set can be described thus: Induction of apoptosis in mouse 3T3 cells assessed as increase in necrotic cells at 0.1 to 1 microM incubated for 24 hrs by Annexin V/PI staining based fluorescence microscopic analysis. It counts as toxicity, cell-based. The following applies: nih3t3, 24 h, dose 0.1-1 µM.
The subject of data set [15] is HepG2. The data set can be described thus: Cytotoxicity against human HepG2 cells assessed as reduction in cell viability measured after 24 hrs. It is filed as functional, cell-based. The following applies: HepG2, 24 h.
Data set [16] can be described thus: Genotoxicity in mouse 3T3 cells assessed as primary DNA damage at 0.1 to 5 microM incubated for 24 hrs by comet assay. The note with it: nih3t3, 24 h, dose 0.1-5 µM. It counts as toxicity, cell-based.
Data set [17] in a line: Cytotoxicity against human OVCAR cells assessed as reduction in cell viability measured after 24 hrs. It is filed as functional, cell-based.
Data set [18] is described as follows: Selectivity index, ratio of IC50 for mouse 3T3 cells to IC50 for human A549 cells. It is filed as toxicity. The note with it: 3T3 cells and A549 cells, read-out: Ratio IC50.
Data set [19] in a line: Cytotoxicity against mouse 3T3 cells assessed as reduction in cell viability measured after 24 hrs. It counts as toxicity, cell-based. The note with it: NIH3T3 cells.
Data set [20] in a line: Selectivity index, ratio of IC50 for mouse 3T3 cells to IC50 for human OVCAR cells.
Data set [21] concerns RAW264.7. The data set can be described thus: Cytotoxicity against mouse RAW264.7 cells assessed as reduction in cell viability measured after 24 hrs. It is filed as functional, cell-based. The following applies: RAW264.7, 24 h.
The nature of data set [22]: Selectivity index, ratio of IC50 for mouse 3T3 cells to IC50 for mouse RAW264.7 cells.
Data set [23] can be described thus: Selectivity index, ratio of IC50 for mouse 3T3 cells to IC50 for mouse J774.A1 cells.
The subject of data set [24] is NIH3T3. Briefly: Induction of apoptosis in mouse 3T3 cells assessed as increase in late apoptotic cells at 1 microM incubated for 24 hrs by Annexin V/PI staining based fluorescence microscopic analysis. It is filed as toxicity, cell-based. The following applies: nih3t3, 24 h.
For data set [25], the system named is NIH3T3. The data set can be described thus: Cytotoxicity against mouse 3T3 cells assessed as reduction in cell viability at 40 uM measured after 24 hrs relative to control. The note with it: nih3t3, 24 h. It counts as toxicity, cell-based.

With `Cc1cc(=O)oc2c(O)c(O)ccc12` [4-METHYLDAPHNETIN], the IC50 in [1] was determined as 33.5 µM.

On to `Cc1cc(=O)oc2cc(OCCn3cc(CCN4C(=O)c5ccccc5C4=O)nn3)ccc12`, for which the half-maximal inhibitory concentration (IC50) is > 100 µM in data set [2]; 2.66 µM in data set [3]; 39.5 µM in data set [4]; 80.8 µM in data set [10]; 87.6 µM in [15]; 91.3 µM in data set [17]. In addition, in data set [5], the “Ratio IC50” value amounted to 5. Further, the Activity entry is recorded as “Toxic” in data set [6]; “Toxic” in data set [11]; “Non-Toxic” in [13]; “Non-Toxic” in [14]; “Non-Toxic” in [16]. Further, the selectivity ratio in data set [7] is 0.007; in data set [9] it was 0.233; in data set [12], < 0.001; in data set [18], 0.007. Also, the result in data set [8] was inactive. Further, the IC50 at 24 h in [19] came out at 0.62 µM.

On to `Cc1cc(=O)oc2cc(OCCn3cc(CO)nn3)ccc12`, for which the half-inhibitory concentration (IC50) in [2] was > 100 µM; in data set [3] it was 10.1 µM; in data set [4], > 100 µM; in data set [21], 5.08 µM; in data set [10], > 100 µM; in data set [15], > 100 µM. The IC50 in data set [17] was > 100 µM. Also, the “Ratio IC50” value is 5 in data set [5], < 0.001 in [20], 0.025 in [22] and 0.037 in [23]. The Activity result in data set [6] is “Toxic”; in data set [11], “Non-Toxic”; in data set [13], “Non-Toxic”; in data set [14], “Non-Toxic”; in data set [16], “Non-Toxic”. Besides, the selectivity ratio in data set [7] is 0.031; in data set [9], 0.516; in data set [12] it was 0.002; in [18], 0.017. Further, the result in data set [8] was Active. In addition, the IC50 at 24 h in data set [19] worked out at 5.21 µM.

With `Cc1cc(=O)oc2cc(OCCn3cc(-c4ccccc4)nn3)ccc12`, the IC50 was > 100 µM in data set [2]; 2.85 µM in [3]; 33 µM in data set [4]; > 100 µM in data set [10]; > 100 µM in data set [15]; > 100 µM in data set [17]. In addition, the “Ratio IC50” value amounted to 5 in data set [5], 0.004 in data set [20] and 0.072 in [23]. The Activity entry in data set [6] is reported as “Toxic”; in data set [11] it was “Toxic”; in data set [13], “Non-Toxic”; in [14], “Non-Toxic”; in data set [16] it was “Non-Toxic”; in data set [24], “Toxic”. Besides, the selectivity ratio in [7] is 0.014; in [9] it was 0.845; in [12], < 0.001; in data set [18], 0.007. For the same compound, the result in data set [8] was inactive. Further, in [19], the concentration for half-maximal inhibition (IC50) at 24 h turned out to be 2.41 µM.

As for `O=c1ccc2cc(O)c(O)cc2o1` [ESCULETIN], the IC50 in data set [1] was 25.2 µM.

For the compound `Cc1cc(=O)oc2cc(O)ccc12` [HYMECROMONE], the half-maximal inhibitory concentration (IC50) is > 100 µM in data set [2]; 54.8 µM in [3]; > 100 µM in data set [4]; > 100 µM in data set [10]; > 100 µM in data set [15]; > 100 µM in data set [17]. The values for the Ratio IC50 in [20] and in data set [23] were 0.021 and 0.171, respectively. The Activity entry in data set [6] was “Toxic”; in data set [11] it was “Non-Toxic”; in data set [13] it was “Non-Toxic”; in data set [14], “Non-Toxic”; in [16], “Non-Toxic”. Moreover, the selectivity ratio in [7] came to 0.161; in data set [9], 0.438; in data set [12] it was 0.011; in data set [18] it was 0.155. Moreover, in data set [8], the result was Active. In addition, in data set [19], the IC50 at 24 h is 24 µM.

On to `Cc1cc(=O)oc2cc(OCCn3cc(COc4cccc5c(C)cc(=O)oc45)nn3)ccc12`, for which the half-inhibitory concentration (IC50) in [2] was > 100 µM; in data set [3], 5.04 µM; in [4], > 100 µM; in data set [21], 8.37 µM; in [10], > 100 µM; in [15] it was 88.3 µM. The half-inhibitory concentration (IC50) in [17] was > 100 µM. For the same compound, the “Ratio IC50” value came to 5 in data set [5], 0.012 in data set [20], 2.33 in data set [22] and 0.001 in data set [23]. The Activity result in [6] is “Toxic”; in [11] it was “Toxic”; in data set [13] it was “Non-Toxic”; in [14], “Non-Toxic”; in data set [16] it was “Non-Toxic”; in [25], “Non-Toxic”. Also, the selectivity ratio in data set [7] was 0.221; in data set [9] it was > 7.93; in [12] it was 0.001; in data set [18], 0.175. The result in [8] was Active. Also, the IC50 at 24 h in data set [19] was > 40 µM.

As to `Cc1cc(=O)oc2c(O)c(O)cc(C(=O)O)c12`, the half-inhibitory concentration (IC50) in data set [1] amounted to 17.5 µM.
